Legend:
Substance-P receptor [1] = target: T1, Substance-P receptor (Homo sapiens, UniProt P25103); assay: Binding Affinity of [3H]- substance P towards Tachykinin receptor 1-CHO cell membranes (n=3-8)
Substance-K receptor = target: T2, Substance-K receptor (Homo sapiens, UniProt P21452); format: cell membranes, CHO
T2 sequence (P21452 whole entry): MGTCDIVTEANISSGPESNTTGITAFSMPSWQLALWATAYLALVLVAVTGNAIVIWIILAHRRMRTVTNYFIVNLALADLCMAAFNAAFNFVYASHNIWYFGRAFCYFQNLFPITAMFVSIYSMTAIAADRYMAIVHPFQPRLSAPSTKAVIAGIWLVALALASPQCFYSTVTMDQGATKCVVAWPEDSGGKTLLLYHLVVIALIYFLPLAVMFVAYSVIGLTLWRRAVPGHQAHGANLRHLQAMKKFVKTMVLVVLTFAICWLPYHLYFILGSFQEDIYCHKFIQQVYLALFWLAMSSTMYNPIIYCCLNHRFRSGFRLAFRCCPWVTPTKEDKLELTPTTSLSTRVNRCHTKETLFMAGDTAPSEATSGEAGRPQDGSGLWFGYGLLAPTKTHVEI

Substance-P receptor [2] = target: T1, Substance-P receptor; assay: Binding affinity against hTachykinin receptor 1 for the displacement of [3H]-substance P binding from Tachykinin receptor 1 CHO membrane
Oryctolagus cuniculus = species on record: Oryctolagus cuniculus; assay: Antagonism of senktide-induced contraction in rabbit isolated iris sphincter muscle; format: functional

T1 sequence (P25103 whole entry): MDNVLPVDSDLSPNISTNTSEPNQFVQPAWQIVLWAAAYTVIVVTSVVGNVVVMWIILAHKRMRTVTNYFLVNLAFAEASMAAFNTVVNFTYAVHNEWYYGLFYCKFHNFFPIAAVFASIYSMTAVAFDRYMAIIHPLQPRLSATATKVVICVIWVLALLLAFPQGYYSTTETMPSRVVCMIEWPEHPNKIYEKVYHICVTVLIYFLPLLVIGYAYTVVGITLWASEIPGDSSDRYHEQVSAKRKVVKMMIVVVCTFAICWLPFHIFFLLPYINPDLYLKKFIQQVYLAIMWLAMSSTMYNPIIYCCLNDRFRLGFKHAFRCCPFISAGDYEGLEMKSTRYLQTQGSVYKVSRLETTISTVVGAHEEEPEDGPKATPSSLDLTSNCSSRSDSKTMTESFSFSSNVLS

Row | SMILES | Ki (Substance-P receptor [1]) [nM] | Ki (Substance-K receptor) [nM] | Ki (Substance-P receptor [2]) [nM] | Kb (Oryctolagus cuniculus) [nM]
1 | COC(=O)C(NC(=O)c1cc(-c2ccccc2)nc2ccccc12)c1ccccc1 (configuration not stated) | > 100000 | 2950 |  | 
2 | COc1ccc2c(C(=O)NCc3ccccc3)cc(-c3ccccc3)nc2c1 |  |  | > 10000 | 
3 | COC(=O)[C@@H](NC(=O)c1cc(-c2ccccc2)nc2ccccc12)c1ccccc1 | > 100000 | 1220 |  | 
4 | COC(=O)[C@H](NC(=O)c1cc(-c2ccccc2)nc2ccccc12)c1ccccc1 | > 100000 | 8330 |  | 
5 | CC(=O)N(C)C1(c2ccccc2)CCN(CCC[C@]2(c3ccc(Cl)c(Cl)c3)CCCN(C(=O)c3ccccc3)C2)CC1 [OSANETANT] |  |  |  | 2

Continued, in another order:

Row | Ki (Substance-P receptor [1]) [nM] | Ki (Substance-K receptor) [nM] | Ki (Substance-P receptor [2]) [nM] | SMILES | Kb (Oryctolagus cuniculus) [nM]
6 | > 100000 | 237 |  | CC[C@H](NC(=O)c1cc(-c2ccccc2)nc2ccccc12)c1ccccc1 [AZD-7624] | 
7 | > 100000 | 277 |  | CC[C@H](NC(=O)c1c(C)c(-c2ccccc2)nc2ccccc12)c1ccccc1 [SB-222200] | 

Reference: ChEMBL document CHEMBL1129332, “2-Phenyl-4-quinolinecarboxamides: a novel class of potent and selective non-peptide competitive antagonists for the human neurokinin-3 receptor” (J Med Chem, 1996)
